Assay: xn = mol fraction of the nth substance listed
Conditions: Liquid, Vibrating tube method

COCCOCCOC [2,5,8-trioxanonane] + CCCCO
Conditions | mass density [kg/m3]
283.55 K, 100000 kPa, x2 = 0.5469 | 947.45
283.56 K, 40000 kPa, x2 = 0.5469 | 918.49
283.56 K, 60000 kPa, x2 = 0.5469 | 928.98
283.56 K, 80000 kPa, x2 = 0.5469 | 938.59
283.58 K, 5000 kPa, x2 = 0.5469 | 897.03
283.58 K, 10000 kPa, x2 = 0.5469 | 900.4
283.58 K, 20000 kPa, x2 = 0.5469 | 906.81
283.58 K, 30000 kPa, x2 = 0.5469 | 912.81
283.59 K, 100 kPa, x2 = 0.5469 | 893.58
283.59 K, 1000 kPa, x2 = 0.5469 | 894.22
283.62 K, 100 kPa, x2 = 0.7308 | 866.59
283.62 K, 1000 kPa, x2 = 0.7308 | 867.24
283.62 K, 5000 kPa, x2 = 0.7308 | 870.06
283.62 K, 10000 kPa, x2 = 0.7308 | 873.45
283.62 K, 20000 kPa, x2 = 0.7308 | 879.83
283.62 K, 30000 kPa, x2 = 0.7308 | 885.83
283.62 K, 40000 kPa, x2 = 0.7308 | 891.47
283.62 K, 60000 kPa, x2 = 0.7308 | 901.94
283.62 K, 80000 kPa, x2 = 0.7308 | 911.46
283.62 K, 100000 kPa, x2 = 0.7308 | 920.22
283.65 K, 100 kPa, x2 = 0.3116 | 922.56
283.65 K, 5000 kPa, x2 = 0.3116 | 926
283.65 K, 20000 kPa, x2 = 0.3116 | 935.72
283.65 K, 30000 kPa, x2 = 0.3116 | 941.81
283.65 K, 40000 kPa, x2 = 0.3116 | 947.48
283.65 K, 60000 kPa, x2 = 0.3116 | 958.06
283.65 K, 80000 kPa, x2 = 0.3116 | 967.62
283.65 K, 100000 kPa, x2 = 0.3116 | 976.51
283.66 K, 1000 kPa, x2 = 0.3116 | 923.21
283.66 K, 10000 kPa, x2 = 0.3116 | 929.34
283.66 K, 20000 kPa, x2 = 0.8787 | 855.19
283.66 K, 30000 kPa, x2 = 0.8787 | 861.18
283.66 K, 40000 kPa, x2 = 0.8787 | 866.81
283.66 K, 60000 kPa, x2 = 0.8787 | 877.23
283.66 K, 80000 kPa, x2 = 0.8787 | 886.62
283.66 K, 100000 kPa, x2 = 0.8787 | 895.34
283.67 K, 100 kPa, x2 = 0.8787 | 841.93
283.67 K, 1000 kPa, x2 = 0.8787 | 842.59
283.67 K, 5000 kPa, x2 = 0.8787 | 845.4
283.67 K, 10000 kPa, x2 = 0.8787 | 848.78
283.67 K, 40000 kPa, x2 = 0 | 978.49
283.67 K, 60000 kPa, x2 = 0 | 989.12
283.67 K, 80000 kPa, x2 = 0 | 998.75
283.67 K, 100000 kPa, x2 = 0 | 1007.71
283.68 K, 10000 kPa, x2 = 0 | 960.29
283.68 K, 20000 kPa, x2 = 0 | 966.68
283.68 K, 30000 kPa, x2 = 0 | 972.8
283.69 K, 100 kPa, x2 = 0 | 953.48
283.69 K, 1000 kPa, x2 = 0 | 954.15
283.69 K, 5000 kPa, x2 = 0 | 956.94
303.46 K, 80000 kPa, x2 = 0.8787 | 874
303.46 K, 100000 kPa, x2 = 0.8787 | 883.23
303.47 K, 100 kPa, x2 = 0 | 933.69
303.47 K, 1000 kPa, x2 = 0 | 934.43
303.47 K, 30000 kPa, x2 = 0.8787 | 846.7
303.47 K, 60000 kPa, x2 = 0.8787 | 863.93
303.48 K, 5000 kPa, x2 = 0 | 937.55
303.48 K, 10000 kPa, x2 = 0 | 941.31
303.48 K, 10000 kPa, x2 = 0.8787 | 833.12
303.48 K, 20000 kPa, x2 = 0.8787 | 840.14
303.48 K, 40000 kPa, x2 = 0.8787 | 852.78
303.49 K, 100 kPa, x2 = 0.8787 | 825.51
303.49 K, 5000 kPa, x2 = 0.8787 | 829.38
303.49 K, 20000 kPa, x2 = 0 | 948.42
303.49 K, 30000 kPa, x2 = 0 | 955.17
303.49 K, 40000 kPa, x2 = 0 | 961.41
303.49 K, 60000 kPa, x2 = 0 | 973.02
303.5 K, 1000 kPa, x2 = 0.7308 | 850.15
303.5 K, 1000 kPa, x2 = 0.8787 | 826.23
303.5 K, 5000 kPa, x2 = 0.7308 | 853.29
303.5 K, 10000 kPa, x2 = 0.7308 | 857.01
303.5 K, 20000 kPa, x2 = 0.7308 | 864.06
303.5 K, 30000 kPa, x2 = 0.7308 | 870.65
303.5 K, 40000 kPa, x2 = 0.5469 | 902.93
303.5 K, 40000 kPa, x2 = 0.7308 | 876.8
303.5 K, 60000 kPa, x2 = 0.5469 | 914.29
303.5 K, 60000 kPa, x2 = 0.7308 | 888.07
303.5 K, 79990 kPa, x2 = 0.7308 | 898.18
303.5 K, 80000 kPa, x2 = 0 | 983.33
303.5 K, 80000 kPa, x2 = 0.5469 | 924.52
303.5 K, 100000 kPa, x2 = 0 | 992.97
303.5 K, 100000 kPa, x2 = 0.5469 | 933.93
303.5 K, 100000 kPa, x2 = 0.7308 | 907.47
303.51 K, 100 kPa, x2 = 0.5469 | 875.36
303.51 K, 100 kPa, x2 = 0.7308 | 849.42
303.51 K, 1000 kPa, x2 = 0.5469 | 876.1
303.51 K, 10000 kPa, x2 = 0.5469 | 883.02
303.51 K, 20000 kPa, x2 = 0.5469 | 890.1
303.51 K, 30000 kPa, x2 = 0.5469 | 896.73
303.52 K, 5000 kPa, x2 = 0.5469 | 879.25
303.55 K, 100000 kPa, x2 = 0.3116 | 962.26
303.56 K, 10000 kPa, x2 = 0.3116 | 911.05
303.56 K, 20000 kPa, x2 = 0.3116 | 918.17
303.56 K, 30000 kPa, x2 = 0.3116 | 924.8
303.56 K, 40000 kPa, x2 = 0.3116 | 931.1
303.56 K, 60000 kPa, x2 = 0.3116 | 942.54
303.56 K, 80000 kPa, x2 = 0.3116 | 952.82
303.57 K, 100 kPa, x2 = 0.3116 | 903.4
303.57 K, 1000 kPa, x2 = 0.3116 | 904.14
303.57 K, 5000 kPa, x2 = 0.3116 | 907.29
322.62 K, 100 kPa, x2 = 0 | 914.41
322.62 K, 1000 kPa, x2 = 0 | 915.3
322.62 K, 5000 kPa, x2 = 0 | 918.77
322.62 K, 10000 kPa, x2 = 0 | 923.02
322.62 K, 20000 kPa, x2 = 0 | 930.99
322.62 K, 30000 kPa, x2 = 0 | 938.31
322.62 K, 40000 kPa, x2 = 0 | 945.16
322.62 K, 60000 kPa, x2 = 0 | 957.74
322.62 K, 80000 kPa, x2 = 0 | 968.98
322.62 K, 100000 kPa, x2 = 0 | 979.2
323.22 K, 100 kPa, x2 = 0.5469 | 857.29
323.22 K, 1000 kPa, x2 = 0.5469 | 858.13
323.22 K, 5000 kPa, x2 = 0.5469 | 861.6
323.23 K, 10000 kPa, x2 = 0.5469 | 865.79
323.23 K, 20000 kPa, x2 = 0.5469 | 873.63
323.23 K, 30000 kPa, x2 = 0.5469 | 880.92
323.23 K, 40000 kPa, x2 = 0.5469 | 887.67
323.23 K, 60000 kPa, x2 = 0.5469 | 899.96
323.24 K, 80000 kPa, x2 = 0.5469 | 911.05
323.24 K, 100000 kPa, x2 = 0.5469 | 920.96
323.26 K, 100 kPa, x2 = 0.7308 | 831.9
323.26 K, 1000 kPa, x2 = 0.7308 | 832.7
323.26 K, 5000 kPa, x2 = 0.7308 | 836.19
323.26 K, 10000 kPa, x2 = 0.7308 | 840.37
323.26 K, 20000 kPa, x2 = 0.7308 | 848.19

Source: the NIST ThermoML archive (doi:10.1021/acs.jced.7b00176)
